The numbers were not newly measured in patent US11058116B1, “Composition for stimulating plant growth and resistance to stress factors” (AGRATEK PTE. LTD., priority 2018, dated 2021), which cites them from elsewhere.

In data set [1] the test system is seeds. As to conditions: pre-treatment of seeds with a solution.
In data set [2] the test system is mold. As to conditions: pre-treatment of seeds with a solution.

On to `O=C([O-])CCC(=O)[O-].[Mg+2]` [succinate of magnesium, magnesium succinate (Mg2C4H4O4)], for which the “germination (increased to)” value in data set [1] was 99%. Further, the “reduces the seeds infection with mold” value in data set [2] is 86%.
